Where “and” joins values, the source holds several entries; their conditions need not be identical. Equal values may be shown once. Inconclusive results and toxic doses are left out.
Test system: CD2F1 mice, L1210 leukemia ip, survival T/C
Experiment: NCI In Vivo Anticancer Drug Screen. Data for tumor model L1210 Leukemia (intraperitoneal) in CD2F1 (CDF1) mice
Conditions: higher = longer survival
Method in brief: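 Read-out first: treated-group measurement over vehicle-control measurement, expressed as a ratio. Animals bore a transplanted tumor line and were dosed with compound or vehicle.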

[1] = endpoint: mean survival time, dose: 100.0 mg/kg/injection, schedule: Q04DX003 (ip), vehicle: saline with Tween-80
[2] = endpoint: median survival time, dose: 50.0 mg/kg/injection, schedule: Q04DX002 (ip), vehicle: saline with Tween-80
[3] = endpoint: median survival time, dose: 100.0 mg/kg/injection, schedule: Q04DX002 (ip), vehicle: saline with Tween-80
[4] = endpoint: mean survival time, dose: 12.5 mg/kg/injection, schedule: Q01DX009 (ip), vehicle: saline with Tween-80
[5] = endpoint: mean survival time, dose: 25.0 mg/kg/injection, schedule: Q01DX009 (ip), vehicle: saline with Tween-80
[6] = endpoint: mean survival time, dose: 50.0 mg/kg/injection, schedule: Q01DX009 (ip), vehicle: saline with Tween-80
[7] = endpoint: mean survival time, dose: 100.0 mg/kg/injection, schedule: Q01DX001 (ip), vehicle: saline with Tween-80
[8] = endpoint: mean survival time, dose: 200.0 mg/kg/injection, schedule: Q01DX001 (ip), vehicle: saline with Tween-80
[9] = endpoint: mean survival time, dose: 400.0 mg/kg/injection, schedule: Q01DX001 (ip), vehicle: saline with Tween-80
[10] = endpoint: mean survival time, dose: 200.0 mg/kg/injection, schedule: Q04DX003 (ip), vehicle: saline with Tween-80
[11] = endpoint: mean survival time, dose: 400.0 mg/kg/injection, schedule: Q04DX003 (ip), vehicle: saline with Tween-80
[12] = endpoint: mean survival time, dose: 100.0 mg/kg/injection, schedule: Q01DX009 (ip), vehicle: saline with Tween-80
[13] = endpoint: mean survival time, dose: 200.0 mg/kg/injection, schedule: Q01DX009 (ip), vehicle: saline with Tween-80
[14] = endpoint: mean survival time, dose: 100.0 mg/kg/injection, schedule: Q01DX001 (ip), vehicle: saline
[15] = endpoint: mean survival time, dose: 200.0 mg/kg/injection, schedule: Q01DX001 (ip), vehicle: saline
[16] = endpoint: mean survival time, dose: 400.0 mg/kg/injection, schedule: Q01DX001 (ip), vehicle: saline

Cc1noc2nc(-c3ccccc3)cc(N3CCN(C)CC3)c12
T/C (endpoint: median survival time, dose: 12.5 mg/kg/injection, schedule: Q01DX005 (ip), vehicle: other): 100 % of control | T/C (endpoint: median survival time, dose: 25.0 mg/kg/injection, schedule: Q01DX005 (ip), vehicle: other): 103 % of control | T/C (endpoint: median survival time, dose: 50.0 mg/kg/injection, schedule: Q01DX005 (ip), vehicle: other): 98 % of control | T/C (endpoint: median survival time, dose: 100.0 mg/kg/injection, schedule: Q01DX005 (ip), vehicle: other): 97 % of control | T/C (endpoint: median survival time, dose: 200.0 mg/kg/injection, schedule: Q01DX005 (ip), vehicle: other): 98 % of control

O=N[O-].O=N[O-].[NH-]CC[NH-].[Pt+2]
T/C (endpoint: mean survival time, dose: 25.0 mg/kg/injection, schedule: Q04DX003 (ip), vehicle: saline with Tween-80): 101 % of control | T/C (endpoint: mean survival time, dose: 50.0 mg/kg/injection, schedule: Q04DX003 (ip), vehicle: saline with Tween-80): 98 % of control | T/C [1]: 93 % of control

CNNCc1ccc(C(=O)NC(C)C)cc1
T/C (endpoint: mean survival time, dose: 3.13 mg/kg/injection, schedule: Q01DX010 (ip), vehicle: saline): 96 % of control | T/C (endpoint: mean survival time, dose: 6.25 mg/kg/injection, schedule: Q01DX010 (ip), vehicle: saline): 106 % of control | T/C (endpoint: mean survival time, dose: 6.25 mg/kg/injection, schedule: Q01DX010 (sc), vehicle: saline): 103 % of control | T/C (endpoint: mean survival time, dose: 12.5 mg/kg/injection, schedule: Q01DX010 (ip), vehicle: saline): 108 % of control | T/C (endpoint: mean survival time, dose: 25.0 mg/kg/injection, schedule: Q01DX010 (oral), vehicle: saline): 120 % of control | T/C (endpoint: mean survival time, dose: 25.0 mg/kg/injection, schedule: Q01DX010 (sc), vehicle: saline): 116 % of control | T/C (endpoint: mean survival time, dose: 29.7 mg/kg/injection, schedule: Q01DX009 (ip), vehicle: saline): 110 % of control | T/C (endpoint: mean survival time, dose: 38.0 mg/kg/injection, schedule: Q03DX004 (ip), vehicle: saline): 100 % of control | T/C (endpoint: mean survival time, dose: 50.0 mg/kg/injection, schedule: Q01DX010 (sc), vehicle: saline): 120 % of control | T/C (endpoint: mean survival time, dose: 100.0 mg/kg/injection, schedule: Q04DX003 (ip), vehicle: saline): 112 % of control | T/C (endpoint: mean survival time, dose: 133.0 mg/kg/injection, schedule: Q01DX009 (ip), vehicle: saline): 159 % of control and 170 % of control | T/C (endpoint: mean survival time, dose: 150.0 mg/kg/injection, schedule: Q03DX004 (ip), vehicle: saline): 108 % of control | T/C (endpoint: mean survival time, dose: 200.0 mg/kg/injection, schedule: Q01DX007 (ip), vehicle: saline): 179 % of control

N[N+]#COC1C(C(=O)NN)C1C(=O)NN (stereo not drawn)
T/C [2]: 94 % of control | T/C [3]: 105 % of control | T/C (endpoint: median survival time, dose: 400.0 mg/kg/injection, schedule: Q04DX002 (ip), vehicle: saline with Tween-80): 105 % of control

O=NN(CCF)C(=O)NC1CCC(NC(=O)N(CCF)N=O)CC1 (stereo not drawn)
T/C (endpoint: mean survival time, dose: 3.13 mg/kg/injection, schedule: Q01DX009 (ip), vehicle: saline with Tween-80): 117 % of control | T/C [4]: 240 % of control | T/C [5]: 273 % of control and 289 % of control | T/C [6]: 234 % of control

O=C(O)c1c(Cl)c(-c2c(Cl)c(C(=O)O)c(Cl)c([N+](=O)[O-])c2Cl)c(Cl)c([N+](=O)[O-])c1Cl
T/C [7]: 93 % of control | T/C [8]: 94 % of control | T/C [9]: 89 % of control

O=C(O)CCc1c[nH]c2ccccc12
T/C [1]: 98 % of control | T/C [10]: 102 % of control | T/C [11]: 108 % of control

c1ccc(Cc2ccccn2)cc1
T/C (endpoint: mean survival time, dose: 100.0 mg/kg/injection, schedule: Q04DX003 (ip), vehicle: water): 93 % of control | T/C (endpoint: mean survival time, dose: 200.0 mg/kg/injection, schedule: Q04DX003 (ip), vehicle: water): 101 % of control | T/C (endpoint: mean survival time, dose: 400.0 mg/kg/injection, schedule: Q04DX003 (ip), vehicle: water): 104 % of control

Nc1cc(Cl)c(O)c(Cl)c1
T/C [7]: 92 % of control

O=[N+]([O-])C=C(S)S
T/C (endpoint: mean survival time, dose: 25.0 mg/kg/injection, schedule: Q01DX009 (ip), vehicle: Klucel (hydroxypropylcellulose) (HPC)): 111 % of control | T/C (endpoint: mean survival time, dose: 50.0 mg/kg/injection, schedule: Q01DX009 (ip), vehicle: Klucel (hydroxypropylcellulose) (HPC)): 98 % of control | T/C (endpoint: mean survival time, dose: 100.0 mg/kg/injection, schedule: Q01DX009 (ip), vehicle: Klucel (hydroxypropylcellulose) (HPC)): 93 % of control | T/C (endpoint: mean survival time, dose: 200.0 mg/kg/injection, schedule: Q01DX009 (ip), vehicle: Klucel (hydroxypropylcellulose) (HPC)): 90 % of control

O=C1C=C(NS(=O)(=O)c2ccccc2)C(=O)c2ccccc21
T/C [12]: 101 % of control | T/C [1]: 101 % of control | T/C [13]: 97 % of control | T/C [10]: 95 % of control | T/C (endpoint: mean survival time, dose: 400.0 mg/kg/injection, schedule: Q01DX009 (ip), vehicle: saline with Tween-80): 97 % of control | T/C [11]: 89 % of control

COc1cc(OC)c(NC(=O)Nc2ccc(C)c([N+](=O)[O-])c2)cc1Cl
T/C [6]: 98 % of control | T/C [12]: 90 % of control | T/C [13]: 94 % of control

COc1cc(C(O)C(Cl)(Cl)Cl)ccc1O (stereo not drawn)
T/C (endpoint: mean survival time, dose: 100.0 mg/kg/injection, schedule: Q01DX009 (ip), vehicle: other): 94 % of control | T/C (endpoint: mean survival time, dose: 200.0 mg/kg/injection, schedule: Q01DX009 (ip), vehicle: other): 105 % of control | T/C (endpoint: mean survival time, dose: 400.0 mg/kg/injection, schedule: Q01DX009 (ip), vehicle: other): 94 % of control

O=C(NCc1ccccc1)c1ccc([N+](=O)[O-])cc1
T/C (endpoint: mean survival time, dose: 100.0 mg/kg/injection, schedule: Q04DX002 (ip), vehicle: other): 97 % of control | T/C (endpoint: mean survival time, dose: 200.0 mg/kg/injection, schedule: Q04DX002 (ip), vehicle: other): 101 % of control | T/C (endpoint: mean survival time, dose: 400.0 mg/kg/injection, schedule: Q04DX002 (ip), vehicle: other): 97 % of control

Nc1ccc(CC(=O)Nc2ccc(S(=O)(=O)F)cc2)cc1
T/C [14]: 102 % of control | T/C [15]: 103 % of control | T/C [16]: 105 % of control

CCC(CC)=NN(C)C
T/C (endpoint: mean survival time, dose: 75.0 mg/kg/injection, schedule: Q01DX001 (ip), vehicle: saline): 100 % of control | T/C (endpoint: mean survival time, dose: 150.0 mg/kg/injection, schedule: Q01DX001 (ip), vehicle: saline): 96 % of control | T/C (endpoint: mean survival time, dose: 300.0 mg/kg/injection, schedule: Q01DX001 (ip), vehicle: saline): 96 % of control

CC(=O)NC1C(OS(=O)(=O)c2ccc(C)cc2)C(NC(C)=O)C(OC(C)=O)C(OC(C)=O)C1OC(C)=O (stereo not drawn)
T/C [7]: 97 % of control | T/C [8]: 103 % of control | T/C [9]: 101 % of control

CN(C)/C(N)=N\c1nc(O)cc(=O)[nH]1
T/C [14]: 102 % of control | T/C [15]: 96 % of control | T/C [16]: 96 % of control

CN(C)CCOc1ccc2c(c1)C/C(=C/c1ncc([N+](=O)[O-])n1C)C2=O
T/C (endpoint: mean survival time, dose: 6.25 mg/kg/injection, schedule: Q01DX009 (ip), vehicle: saline with Tween-80): 96 % of control and 98 % of control | T/C [4]: 107 % of control | T/C [5]: 107 % of control and 108 % of control | T/C [6]: 117 % of control and 107 % of control | T/C [12]: 119 % of control and 104 % of control | T/C [13]: 111 % of control

N#CC(C(=O)O)C1CCCCC1=O (stereo not drawn)
T/C [2]: 100 % of control | T/C [3]: 100 % of control | T/C (endpoint: median survival time, dose: 200.0 mg/kg/injection, schedule: Q04DX002 (ip), vehicle: saline with Tween-80): 100 % of control

Cc1ccc(C(SCC(N)C(=O)O)(c2ccc(C)cc2)c2ccc(C)cc2)cc1 (stereo not drawn)
T/C (endpoint: mean survival time, dose: 100.0 mg/kg/injection, schedule: Q01DX009 (ip), vehicle: saline): 175 % of control | T/C (endpoint: mean survival time, dose: 200.0 mg/kg/injection, schedule: Q01DX009 (ip), vehicle: saline): 210 % of control | T/C (endpoint: mean survival time, dose: 400.0 mg/kg/injection, schedule: Q01DX009 (ip), vehicle: saline): 200 % of control

O=NN(CCBr)C(=O)Nc1ccccc1
T/C (endpoint: mean survival time, dose: 9.0 mg/kg/injection, schedule: Q01DX Z (ip), vehicle: carboxymethylcellulose (CMC)): 150 % of control | T/C (endpoint: mean survival time, dose: 18.0 mg/kg/injection, schedule: Q01DX Z (ip), vehicle: carboxymethylcellulose (CMC)): 162 % of control | T/C (endpoint: mean survival time, dose: 25.0 mg/kg/injection, schedule: Q01DX Z (ip), vehicle: carboxymethylcellulose (CMC)): 158 % of control | T/C (endpoint: mean survival time, dose: 37.0 mg/kg/injection, schedule: Q01DX Z (ip), vehicle: carboxymethylcellulose (CMC)): 183 % of control | T/C (endpoint: mean survival time, dose: 75.0 mg/kg/injection, schedule: Q01DX Z (ip), vehicle: carboxymethylcellulose (CMC)): 115 % of control | T/C (endpoint: mean survival time, dose: 100.0 mg/kg/injection, schedule: Q01DX Z (ip), vehicle: carboxymethylcellulose (CMC)): 103 % of control | T/C (endpoint: mean survival time, dose: 150.0 mg/kg/injection, schedule: Q01DX Z (ip), vehicle: carboxymethylcellulose (CMC)): 90 % of control

— PubChem BioAssay AID256 (DTP/NCI, 2004)
